Experiment [1] relates to Escherichia coli ATCC25922. In words: Antibacterial activity MIC. In kind it is cell-based. As to conditions: Gram-negative; for MIC: Escherichia coli, read-out: Antibacterial Activity MIC, E. coli.
In experiment [2] the test system is Enterococcus faecalis ATCC19433. The experiment can be described thus: Antibacterial activity MIC. It is filed as cell-based. Particulars: ATCC19433, read-out: Antibacterial Activity MIC, Enterococcus faecalis.
The target in experiment [3] is T1, recombinant SrtA from S. aureus ATCC6538p (Staphylococcus aureus, UniProt Q2FV99).
T1 construct: made in house; host or cells: Escherichia coli
T1 sequence (Q2FV99 whole entry): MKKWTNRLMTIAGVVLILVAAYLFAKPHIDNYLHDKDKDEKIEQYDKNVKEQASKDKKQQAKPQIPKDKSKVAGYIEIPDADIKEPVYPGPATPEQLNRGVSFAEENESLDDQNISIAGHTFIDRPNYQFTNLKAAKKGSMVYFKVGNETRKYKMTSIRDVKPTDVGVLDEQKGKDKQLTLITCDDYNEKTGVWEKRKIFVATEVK
The experiment can be described thus: SrtA inhibition assay (fluorescence, dabcyl-LPETG-edans cleavage). It is filed as biochemical. The text has this: The same bioassays were pursued with the new compounds and the known congeners, with a particular emphasis on SrtA inhibition. The rationale of SrtA inhibition is that this transpeptidase decorates the surfaces of Gram-positive bacteria with a diverse array of proteins that enable microbes to effectively interact with their environment, and it is not required for bacterial growth or viability. It is thus considered a promising target for the development of anti-virulence drugs aimed at interfering with important virulence mechanisms such as adhesion to host tissues. To assess the SrtA inhibitory activity of compounds 1–14, recombinant SrtA derived from S. aureus ATCC6538p was purified from Escherichia coli extracts using metal chelate-affinity chromatography. The enzyme activity was determined from the fluorescence intensity upon cleavage of a peptide substrate containing the LPETG motif.
Before evaluating the SrtA inhibitory activity of the test compounds, recombinant SrtA from S. aureus ATCC6538p was prepared according to methods described in a previous paper. The SrtA inhibitory activity of the test compounds was determined according to previously described methods with minor modifications. The reaction was carried out with 100 μL buffer (50 mM Tris-HCl, 5 mM CaCl2, and 150 mM NaCl, pH 7.5), 7.5 µM synthetic peptide dabcyl-LPETG-edans (AnaSpec, Inc., Fremont, CA, USA), 7.5 µM purified SrtA, and test samples at various concentrations. […] The SrtA inhibition assay was conducted at 37 °C for 1 h, and inhibition was quantified fluorometrically using a microplate reader (FLx800, BioTek Instruments, Winooski, VT, USA) at excitation and emission wavelengths of 350 and 495 nm, respectively. Berberine chloride and triphasiol were used as reference inhibitors of SrtA.

Experiment [4] relates to Trichophyton rubrum NBRC9185. In words: Antifungal activity MIC. In kind it is cell-based.
In a further experiment the test system is A549 cell line. The experiment can be described thus: MTT cytotoxicity assay. In kind it is cell-based. As to conditions: Homo sapiens. The procedure:
(§1) An MTT assay was performed as previously described to determine the cytotoxicity against A549 and K562 cell lines. These cancer cell lines were purchased from the Korean Cell Line Bank (KCLB), Seoul, Republic of Korea.

For a further experiment, the system named is K562 cell line. The experiment can be described thus: MTT cytotoxicity assay. It is filed as cell-based. Particulars: Homo sapiens. The procedure:
as §1

The test system of experiment [5] is Salmonella enterica ATCC14028. The experiment can be described thus: Antibacterial activity MIC. It is filed as cell-based. As to conditions: ATCC14028, read-out: Antibacterial Activity MIC, Salmonella enterica.
Experiment [6] deals with Enterococcus faecium ATCC19434. In words: Antibacterial activity MIC. Particulars: ATCC19434, read-out: Antibacterial Activity MIC, Enterococcus faecium. In kind it is cell-based.
Another experiment concerns S. aureus strain Newman. In words: Antibacterial activity MIC. It is filed as cell-based. As to conditions: Staphylococcus aureus, read-out: Antibacterial Activity MIC, S. aureus.
The test system of experiment [7] is Klebsiella pneumoniae ATCC10031. The experiment can be described thus: Antibacterial activity MIC. As to conditions: ATCC10031, read-out: Antibacterial Activity MIC, Klebsiella pneumonia. It is filed as cell-based.
Experiment [8] relates to Candida albicans ATCC10231. The experiment can be described thus: Antifungal activity MIC. It is filed as cell-based.
For experiment [9], the system named is Trichophyton mentagrophytes IFM40996. The experiment can be described thus: Antifungal activity MIC. It is filed as cell-based.
Experiment [10] has as its system Aspergillus fumigatus HIC6094. The experiment can be described thus: Antifungal activity MIC. It is filed as cell-based.
Where [11] appears, read: MTT assay, A549, read-out: IC50 A549.
Where [12] appears, read: MTT assay, K562, read-out: IC50 K562.

Molecules are shown by their SMILES. Values after ≈ are worked out from the molar mass of the structure shown. Where two headings read alike, the source gives them in different places.

These results are taken from publication PMC7824209, “Bioactive Bis(indole) Alkaloids from a Spongosorites sp. Sponge” (Marine Drugs, 2020).

`O=C1NC[C@H](c2c[nH]c3cc(Br)ccc23)N[C@H]1c1c[nH]c2cc(Br)ccc12` [Compound 12, (3S, 5R)-6-dibromo-trans-3,4-dihydrohamacanthin B]: the minimum inhibitory concentration (MIC) is greater than 128 µg/mL in experiment [1]; 16 µg/mL (≈ 32.8 µM) in [2]; greater than 128 µg/mL in experiment [4]; 8 µg/mL (≈ 16.4 µM) in [5]; greater than 128 µg/mL in [6]; 8 µg/mL (≈ 16.4 µM) with S. aureus strain Newman (NEWMAN). The minimum inhibitory concentration (MIC) in experiment [7] was 8 µg/mL (≈ 16.4 µM); in experiment [8] it was greater than 128 µg/mL; in experiment [9] it was greater than 128 µg/mL; in [10], greater than 128 µg/mL. For the same compound, the “Antibacterial Activity MIC, E. coli” value in experiment [1] was greater than 128 µg/mL. The half-maximal inhibitory concentration (IC50) in experiment [3] was greater than 263 µM; with A549 cell line (A549, read-out: IC50 A549), 34.3 µM; in the experiment on K562 cell line (K562, read-out: IC50 K562) it was 9.7 µM.
Turning to `COC(=O)c1c[nH]c2ccccc12` [Compound 13, 3-carbomethoxyindole], the minimum inhibitory concentration (MIC) was greater than 128 µg/mL in experiment [1]; greater than 128 µg/mL in experiment [2] (Gram-positive); greater than 128 µg/mL in experiment [4]; greater than 128 µg/mL in [5] (Gram-negative); greater than 128 µg/mL in [6] (Gram-positive); 128 µg/mL (≈ 731 µM) in the experiment on S. aureus strain Newman (Gram-positive, strain Newman). The MIC in experiment [7] (Gram-negative), in experiment [8], in experiment [9] and in experiment [10] was greater than 128 µg/mL in each case. Further, the results for the IC50 (in experiment [3]; in the experiment on A549 cell line (setting [11]); in the experiment on K562 cell line (setting [12])) were 164 µM, 59.2 µM and greater than 100 µM, respectively.
For `COC(=O)c1c[nH]c2cc(O)ccc12` [Compound 14, 6-hydroxy-3-carbomethoxyindole], the MIC in experiment [1] is greater than 128 µg/mL; in experiment [2] (Gram-positive), greater than 128 µg/mL; in experiment [4] it was greater than 128 µg/mL; in [5] (Gram-negative), greater than 128 µg/mL; in [6] (Gram-positive), greater than 128 µg/mL; with S. aureus strain Newman (Gram-positive, strain Newman), 128 µg/mL (≈ 670 µM). Besides, the MIC in [7] (Gram-negative), in experiment [8], in experiment [9] and in [10] was greater than 128 µg/mL in each case. Further, the IC50 in experiment [3] was 191 µM; in the experiment on A549 cell line (setting [11]), 66.8 µM; with K562 cell line (setting [12]) it was greater than 100 µM.
